Experimental data reported in patent US20230256051A1, “MODIFIED KISSPEPTIN RECEPTOR AGONISTS FOR FATTY LIVER DISEASE” (priority 2020, published 2023).
Entries after “also recorded” stand apart in the source; their conditions may differ. No end group written: not given here.

Key:
[1] = system: primary mouse hepatocytes; test: FFA-loaded isolated primary mouse hepatocytes treated with KP-10 or TAK
Description: (n=4) * p < 0.05; One-way ANOVA followed by Dunnett’s post-hoc test.
Primary hepatocytes from mice were isolated according to known methods. Mice (wild-type, C57BL6) or LKO and littermate controls were anesthetized using a ketamine/xylazine mixture (Henry Schein™). The liver was cannulated via the hepatic portal vein and first perfused with 37° C. Kreb’s Ringer solution containing EGTA for 10 minutes. After the first wash, a second Kreb’s Ringer solution containing CaCl2 and LIBERASE (Roche™) was used until the liver was thoroughly perfused. Hepatocytes were filtered through a gauze mesh and resuspended in William’s Media E (Sigma™) with 10 % FBS (Sigma™), 200 nM dexamethasone (Sigma™), 5 mM pen/strep (Fisher™), 2 mM L-glutamine (Fisher™). Cells were plated at a density of 3 × 10^5 on 6-well collagen-coated plates (Sigma™). Hepatocytes were left to recover overnight and then were serum starved for 3 hours prior to experiments. For free fatty acid (FFA) loading, 150 µM oleic and 150 µM palmitic acid was conjugated with 2% BSA (0.3 mM).

[2] = system: HFD-fed C57BL6/J mice (mouse model of NAFLD); test: Diet-induced (HFD) mouse model of NAFLD, TAK-448 infused by subcutaneous mini-osmotic pump; format: in vivo; conditions: for liver steatosis / lipid accumulation (H&E, Oil Red O): 0.3 nmol/hour s.c. mini-osmotic pump, vs vehicle (PBS); for liver steatosis / lipid accumulation (H&E, Oil Red O) / insulin resistance / sensitivity (ITT) / glucose tolerance (GTT) / fasting glucose / body weight: 4 weeks; for insulin resistance / sensitivity (ITT) / glucose tolerance (GTT) / fasting glucose / body weight: 0.3 nmol/hour s.c. pump; for insulin resistance / sensitivity (ITT): 6 h fast, insulin 0.5 U/kg i.p.; for glucose tolerance (GTT): 12 h fast, D-glucose 1 g/kg i.p.; for liver triglycerides (TGs) / serum/blood glycerol: endpoint
Description: Animals were treated for 4 weeks unless otherwise indicated and maintained on RD or HFD (total of 10 weeks). Blood glucose measurements were obtained via a small nick in the lateral tail vein using a glucometer (Bayer ContourTM). For glucose tolerance tests, mice were fasted for 12 hours and then injected intraperitoneally with D-glucose (1 g/kg). For the insulin tolerance tests, mice were fasted for 6 hours and then injected intraperitoneally with insulin (0.5 U/kg; Novo NordiskTM). Mice where individually housed in an 8-chamber Clinical Laboratory Animal Monitoring System (CLAMS) with controlled light and feeding. Carbon dioxide output, oxygen update, respiratory exchange ratio (RER), ambulatory movement, and feeding were measured over a 4-day period. Serum insulin levels were measured using the Ultra-Sensitive Mouse Insulin ELISA Kit (Crystal ChemTM). Serum glycerol levels were measured using the Glycerol Assay Kit (SigmaTM). Liver triglycerides were measured using the triglyceride quantification kit (MBLTM international Catalog # JM-K622-500). Free fatty acids were measured using the Free Fatty Acid Quantification Kit (SigmaTM, […]). ALT levels were measured using Liquid ALT (SGPT) Reagent set according to the manufacturer's instructions; cholesterol levels were measured using the Cholesterol set according to the manufacturer's instructions. Immunoblot assays were conducted according to known methods. Mouse liver tissue or primary hepatocytes were homogenized in RIPA lysis buffer containing protease inhibitors and centrifuged at 4° C.; the protein expression in lysates was analyzed by Western blot analysis. Protein was separated using SDS-PAGE and probed using the following antibodies: […] Mouse anti-β actin (1:5000, Thermo Fisher ScientificTM) or anti-vinculin (1:1000, Bio-RadTM) were used for loading control. Protein was then incubated for 1 hour in horseradish peroxidase (HRP)-conjugated rabbit (1:2500, Cell Signaling TechnologyTM) or mouse (1:2500, Cell Signaling TechnologyTM) secondary antibody. Blots were imaged by chemiluminescence with ChemiDocTM Touch imaging system (Bio-RadTM), SuperSignal and West Dura Extended Duration Substrate (Thermo ScientificTM). Protein levels were quantified using Image Lab Software (Bio-RadTM). Total RNA was extracted from cells using the Trizol method. Reverse transcription was done according to manufacturer's instructions using iScript RT Supermix (Bio-RadTM). Gene expression was determined using SYBR green real-time qPCR (RT-qPCR) as described previously using primers shown in Table 7, below. The following primers were purchased from BioRadTM (validated […] primers): Srebpl, Aqp3, Aqp9, Gpat2, Agpat2, Dgat1, Dgat2, Mogat1, Slc2a2, […]1, Sod1, Sod2, Gss, Ucp2, and Gpam. Il-13 was purchased from QiagenTM (QT00099554). Primers for Srebf1, Aqp3, Aqp9, Gpat2, Agpat2, Dgat1, Dgat2, Mogat1, Slc2a2, Lgpat1, Sod1, Sod2, Gss, Ucp2, and Gpam are pre-made and were purchased from BioRadTM. Liver tissue was immediately fixed in 10% neutral formalin after mice were euthanized. Tissue was processed for histology by the Research Pathology Services at Rutgers University. Livers were sectioned into 5 μm thick sections and stained with hematoxylin and eosin. Sections were examined by light microscopy for histopathological changes. C57BL/6J mice fed high fat diet (HFD) or control regular diet (RD) for 12 weeks (4-5/group). TAK-448 (TAK) or Vehicle (Veh i.e., PBS controls) were administered for 4 weeks using an ALZET mini-osmotic pump implanted subcutaneously. Steatosis is shown by hematoxylin and eosin stained mouse livers (lipid accumulation, small white droplets, arrowheads) and by Oil Red O staining of lipids (red dots) in control livers (FIG. 1A). This was prevented in the TAK-448 treated group (FIG. 1A). […]

[3] = cited from earlier work
KISS1R [4] = target: T1, KISS1R (Homo sapiens, UniProt Q969F8); parameters: expressed in transfected cells; host or cells: CHO (CHO-KISS1R), membrane preparations; conditions: CHO-KISS1R membrane preparations; means +/- SE; n = 3-5; read-out: IC50 against [125I]KP-54 binding to KISS1R; cited from earlier work
Target sequence in this assay (Q969F8 whole entry, species assumed): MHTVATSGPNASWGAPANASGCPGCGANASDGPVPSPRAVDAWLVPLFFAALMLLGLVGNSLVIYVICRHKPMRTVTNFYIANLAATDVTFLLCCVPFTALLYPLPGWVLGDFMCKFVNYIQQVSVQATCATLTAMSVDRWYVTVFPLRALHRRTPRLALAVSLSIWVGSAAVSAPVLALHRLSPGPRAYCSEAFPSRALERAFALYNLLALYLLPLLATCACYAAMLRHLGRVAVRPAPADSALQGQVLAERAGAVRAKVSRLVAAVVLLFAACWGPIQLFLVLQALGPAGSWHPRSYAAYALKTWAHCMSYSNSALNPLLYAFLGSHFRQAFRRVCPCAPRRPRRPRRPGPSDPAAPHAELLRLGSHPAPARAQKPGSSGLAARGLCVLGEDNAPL

KISS1R [5] = target: T1, KISS1R; parameters: expressed in transfected cells; host or cells: CHO cells; conditions: [Ca2+] increasing activity, CHO cells expressing human KISS1R; (95% confidence interval); read-out: Agonist activity EC50; cited from earlier work
Target sequence in this assay (Q969F8 whole entry): as the sequence (Q969F8 whole entry, species assumed) above

healthy men = conditions: cited from earlier work
[6] = HFD livers, RT-qPCR, vs vehicle
[7] = HFD livers, RT-qPCR, vs vehicle, listed as TAK
[8] = HFD livers, western blot, vs vehicle
[9] = HFD mice, vs vehicle, listed as TAK
[10] = HFD mice, 4 weeks treatment, vs vehicle
[11] = HFD mice, 4 weeks treatment, vs vehicle, listed as TAK
[12] = HFD mice, 4 weeks treatment, vs vehicle, listed as TAK-488
[13] = treated vs untreated mice, 4 weeks post treatment

For `CNC(=N)NCCC[C@H](NC(=O)[C@H](CC(C)C)NC(=O)NNC(=O)[C@H](Cc1ccccc1)NC(=O)[C@@H](NC(=O)[C@H](CC(N)=O)NC(=O)[C@@H]1C[C@@H](O)CN1C(=O)[C@@H](Cc1ccc(O)cc1)NC(C)=O)[C@@H](C)O)C(=O)N[C@@H](Cc1c[nH]c2ccccc12)C(N)=O.O=C(O)C(F)(F)F` [TAK-448], the “TG accumulation in FFA loaded hepatocytes” value ([1]; KP 100 nM or TAK 3 nM, 150 µM palmitate and 150 µM oleate, wild-type hepatocytes, n=4) was “substantially decreased”, the “hepatic expression of PPARy, CD36 and MOGAT1” value ([2]; HFD livers, RT-qPCR and western blot, vs vehicle, listed as TAK) was “significantly reduced; also recorded: inhibited” and the “Gpam expression in liver” value [2, 6] was “significantly reduced”. For the same compound, the “Lfabp1 and Gyk1 expression in liver” value [2, 6] was “not significant”, the “Srebf1 expression in liver” value [2, 6] was “not significant” and the “liver markers for oxidative stress (Ucp2, Gss)” value [2, 6] was “lower levels”. For the same compound, the “liver markers for fibrosis (Tgfb1, Timp1)” value [2, 7] was “lower levels; also recorded: reduction”, the “liver pro-inflammatory markers (Ip10, Mcp1)” value [2, 7] was “lower levels; also recorded: reduction” and the “Fasn expression in liver” value [2, 8] was “significant decrease”. The “phosphorylation of AMPK in liver” value [2, 8] was “induced phosphorylation”, the “liver steatosis / lipid accumulation (H&E, Oil Red O)” value ([2]; HFD mice) was “prevented” and the “liver steatosis / lipid accumulation (H&E, Oil Red O)” value ([2]; HFD mice, listed as TAK) was “protected against; also recorded: suppressed”. For the same compound, the “insulin resistance / sensitivity (ITT)” value ([2]; HFD mice, vs vehicle) was “protected against; also recorded: prevented insulin resistance”, the “insulin resistance / sensitivity (ITT)” value [2, 9] was “insulin sensitive; also recorded: improved” and the “glucose tolerance (GTT)” value ([2]; HFD mice, vs vehicle) was “prevented glucose intolerance”. For the same compound, the “glucose tolerance (GTT)” value [2, 9] was “glucose tolerant; also recorded: improved”, the fasting glucose ([2]; HFD mice, vs vehicle) was “prevented the rise” and the body weight [2, 9] was “significantly lower; also recorded: prevented a gain”. The fasting glucose [2, 9] was “lower”, the body weight ([2]; HFD mice, vs vehicle, listed as TAK-488) was “lowering” and the “food intake (CLAMS)” value ([2]; HFD mice, 4 weeks post treatment, vs vehicle) was “without a change”. The “food intake (CLAMS)” value ([2]; HFD mice, 4 weeks post treatment, vs vehicle, listed as TAK) was “without a change; also recorded: without changing”, the “food intake (CLAMS)” value ([2]; HFD mice, 4 weeks post treatment, vs vehicle, listed as Takeda-488) was “no difference” and the “epididymal white adipose tissue (eWAT)” value [2, 10] was “significant decrease”. For the same compound, the “inguinal white adipose tissue (iWAT)” value [2, 10] was “significant decrease”, the “peripheral fat accumulation / adipose mass” value [2, 10] was “protected against” and the “serum ALT” value [2, 10] was “significantly lower”. For the same compound, the “serum/blood free fatty acids (FFA)” value [2, 10] was “prevented”, the “peripheral fat accumulation / adipose mass” value [2, 11] was “lowered” and the “serum TGs” value [2, 11] was “significant decrease; also recorded: reduced”. The serum cholesterol [2, 11] was “significantly lower; also recorded: reduced”, the “serum/blood free fatty acids (FFA)” value [2, 11] was “significantly lower; also recorded: reduced” and the “peripheral fat accumulation / adipose mass” value [2, 12] was “lowering”. For the same compound, the “serum/blood free fatty acids (FFA)” value [2, 12] was “lowering”, the “liver triglycerides (TGs)” value [2, 10] was “prevented” and the serum/blood glycerol [2, 10] was “prevented”. The “liver triglycerides (TGs)” value [2, 11] was “significant decrease”, the serum/blood glycerol [2, 11] was “significantly lower” and the “liver triglycerides (TGs)” value [2, 12] was “lowering”. For the same compound, the serum/blood glycerol [2, 12] was “lowering”, the “heat production (CLAMS)” value [2, 13] was “no differences” and the “respiratory exchange ratio (RER, CLAMS)” value [2, 13] was “no differences”. For the same compound, the “half-life in the blood” value [3] was 4 h.

For ANWNSFGLRF [ANA1], the IC50 (KISS1R [4]) is given as 23.2 ± 14.3 nM.

In the case of “Ac-YNK(Palm-γ-D)NSFGT[Tz]LRY-NH2 [Compound 4**, Decourt et al., 2016 numbering]”, the EC50 (KISS1R [5]) is given as 2.1 nM.

For “Ac-YNWNSFGT[Tz]LR[Me]Y-NH2 [Compound 7**, Decourt et al., 2016 numbering]”, the EC50 (KISS1R [5]) is given as 1.5 nM.

In the case of FNWNSFGLRF [ANA11], the IC50 (KISS1R [4]) is given as 3.5 ± 2.1 nM.

For “Gly-Thr-Ser-Leu-Ser-Pro-Pro-Pro-Glu-Ser-Ser-Gly-Ser-Arg-Gln-Gln-Pro-Gly-Leu-Ser-Ala-Pro-His-Ser-Arg-Gln-Ile-Pro-Ala-Pro-Gln-Gly-Ala-Val-Leu-Val-Gln-Arg-Glu-Lys-Asp-Leu-Pro-Asn-Tyr-Asn-Trp-Asn-Ser-Phe-Gly-Leu-Arg-Phe-NH2 (GTSLSPPPESSGSRQQPGLSAPHSRQIPAPQGAVLVQREKDLPNYNWNSFGLRF-NH2) [Kisspeptin-54]”, the “food intake or appetite” value (healthy men) is given as “without altering” and the insulin secretion (healthy men) is given as “enhance”.

In the case of “Palm-γ-DYNWNSFGT[Tz]LR[Me]Y-NH2 [Compound 6**, Decourt et al., 2016 numbering]”, the EC50 (KISS1R [5]) is given as 0.17 nM.

For “Palm-γ-DYNWNSFG′P[Tz]LRY-NH2 [Compound 5**, Decourt et al., 2016 numbering]”, the EC50 (KISS1R [5]) is listed as 0.13 nM.

In the case of YAWNSFGLRF [ANA2], the IC50 (KISS1R [4]) is listed as 145 ± 138 nM.

In the case of YDWNSFGLRF [ANA12], the IC50 (KISS1R [4]) is given as 29.1 ± 13.5 nM.

For YNANSFGLRF [ANA3], the IC50 (KISS1R [4]) is given as 2.7 ± 0.7 nM.

In the case of YNWASFGLRF [ANA4], the IC50 (KISS1R [4]) is given as 43.5 ± 15.5 nM.

In the case of YNWDSFGLRF [ANA13], the IC50 (KISS1R [4]) is given as 140 ± 60.6 nM.

For YNWNAFGLRF [ANA5], the IC50 (KISS1R [4]) is given as 0.8 ± 0.4 nM.

For YNWNSAGLRF [ANA6], the IC50 (KISS1R [4]) is listed as 110 ± 89.8 nM.

In the case of YNWNSFALRF [ANA7], the IC50 (KISS1R [4]) is listed as 4.6 ± 1.5 nM.

For YNWNSFGARF [ANA8], the IC50 (KISS1R [4]) is listed as 77.4 ± 10 nM.

In the case of YNWNSFGIRF [ANA 16], the IC50 (KISS1R [4]) is given as 39.9 ± 8.1 nM.

For YNWNSFGLKF [ANA17], the IC50 (KISS1R [4]) is listed as 9.8 ± 2.6 nM.

For YNWNSFGLRF [Kisspeptin-10], the “expression of de novo lipogenic genes” value ([1]; primary mouse hepatocytes, treatment for 8 hours, RT-qPCR) was “reduced” and the “phosphorylation of AMPK and its downstream target ACC” value ([1]; primary mouse hepatocytes, western blot, n=4) was “stimulated phosphorylation”.

For YNWNSFGLRH [ANA18], the IC50 (KISS1R [4]) is given as 378 ± 266 nM.

In the case of “YNWNSFGLRY [Compound 2**, Decourt et al., 2016 numbering]”, the EC50 (KISS1R [5]) is listed as 0.057 nM.

In the case of YNWNSYGLRF [ANA15], the IC50 (KISS1R [4]) is listed as 87.5 ± 30.7 nM.

In the case of YNWNTFGLRF [ANA14], the IC50 (KISS1R [4]) is listed as 2.3 ± 1.6 nM.
